According to ChEMBL document CHEMBL4373702, “Intracellular Trapping of the Selective Phosphoglycerate Dehydrogenase (PHGDH) Inhibitor BI-4924 Disrupts Serine Biosynthesis” (J Med Chem, 2019):
In brackets after ≈: the same amount, converted by molar mass. Activity calls are given as the source filed them. The rule behind the calls is not given here.

Assays:
[1] = molecular target: T1, D-3-phosphoglycerate dehydrogenase (Homo sapiens, UniProt O43175); assay: Inhibition of N-terminal His6-tagged human PHGDH (4 to 315 residues) assessed as effect on NADH fluorescence incubated for 2 hrs using 3-PG substrate in presence of 19 uM NAD+ and PSAT1 by diaphorase based luminescence assay
T1 sequence (O43175 whole entry): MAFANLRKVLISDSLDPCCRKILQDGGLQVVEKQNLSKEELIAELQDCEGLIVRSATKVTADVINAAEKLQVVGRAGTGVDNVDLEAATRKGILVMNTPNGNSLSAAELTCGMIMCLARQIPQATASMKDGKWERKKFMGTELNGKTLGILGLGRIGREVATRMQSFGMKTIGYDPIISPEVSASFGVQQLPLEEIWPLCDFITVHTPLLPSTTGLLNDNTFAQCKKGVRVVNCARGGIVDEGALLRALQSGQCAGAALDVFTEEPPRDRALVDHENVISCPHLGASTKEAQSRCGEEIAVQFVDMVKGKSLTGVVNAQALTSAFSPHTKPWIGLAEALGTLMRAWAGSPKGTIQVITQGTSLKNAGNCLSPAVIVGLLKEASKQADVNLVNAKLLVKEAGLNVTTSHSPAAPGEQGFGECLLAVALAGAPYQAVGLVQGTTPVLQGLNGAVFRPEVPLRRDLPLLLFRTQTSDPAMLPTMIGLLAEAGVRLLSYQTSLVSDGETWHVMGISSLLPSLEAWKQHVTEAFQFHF

[2] = molecular target: T1, D-3-phosphoglycerate dehydrogenase; assay: Inhibition of N-terminal His6-tagged human PHGDH (4 to 315 residues) assessed as effect on NADH fluorescence incubated for 2 hrs using 3-PG substrate in presence of 250 uM NAD+ and PSAT1 by diaphorase based luminescence assay
[3] = molecular target: T1, D-3-phosphoglycerate dehydrogenase; assay: Binding affinity to N-terminal His6-tagged human PHGDH (4 to 315 residues)by SPR assay
[4] = molecular target: Alcohol dehydrogenase class-3 (Homo sapiens) (UniProt P11766); assay: Binding affinity to Alcohol dehydrogenase class-3 in human MDA-MB-468 cells at 10 uM incubated for 2 hrs in presence of 2-[4-[(1S)-1-[[6-(10-aminodecyl)-4,5-dichloro-1-methyl-indole-2-carbonyl]amino]-2-hydroxy-ethyl]phenyl]sulfonylacetic acid by quantitative chemical proteomics assay; assay type: cell-based
[5] = molecular target: T2, 3-hydroxyisobutyrate dehydrogenase, mitochondrial (Homo sapiens) (UniProt P31937); assay: Binding affinity to 3-hydroxyisobutyrate dehydrogenase in human MDA-MB-468 cells at 10 uM incubated for 2 hrs in presence of 2-[4-[(1S)-1-[[6-(10-aminodecyl)-4,5-dichloro-1-methyl-indole-2-carbonyl]amino]-2-hydroxy-ethyl]phenyl]sulfonylacetic acid by quantitative chemical proteomics assay; assay type: cell-based
T2 sequence (whole entry): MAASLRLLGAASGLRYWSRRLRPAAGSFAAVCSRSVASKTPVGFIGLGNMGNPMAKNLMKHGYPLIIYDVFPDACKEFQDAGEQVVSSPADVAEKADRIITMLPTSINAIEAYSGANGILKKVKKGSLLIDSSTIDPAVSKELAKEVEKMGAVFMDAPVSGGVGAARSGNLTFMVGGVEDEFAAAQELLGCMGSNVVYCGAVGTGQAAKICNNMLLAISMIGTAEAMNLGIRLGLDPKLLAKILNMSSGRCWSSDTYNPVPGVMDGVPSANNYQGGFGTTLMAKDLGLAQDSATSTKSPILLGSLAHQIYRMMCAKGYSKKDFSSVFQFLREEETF

[6] = Permeability from apical to basolateral side in human Caco2 cells; assay type: ADME, cell-based; conditions: caco-2
[7] = molecular target: T1, D-3-phosphoglycerate dehydrogenase; assay: Inhibition of PHGDH in human MDA-MB-468 cells assessed as reduction in [13C]-serine incubated for 72 hrs using [13C]glucose as substrate by LC-MS/MS analysis; assay type: cell-based
[8] = Solubility pH 4.5 buffer; assay type: physicochemical
[9] = Solubility pH 6.8 buffer; assay type: physicochemical
[10] = Stability in mouse liver microsomes relative to hepatic blood flow; assay type: ADME, Microsome; conditions: read-out: Stability
[11] = Stability in rat liver microsomes relative to hepatic blood flow; assay type: ADME, Microsome; conditions: read-out: Stability
[12] = Stability in human liver microsomes relative to hepatic blood flow; assay type: ADME, Microsome; conditions: read-out: Stability
[13] = Stability in mouse hepatocytes relative to hepatic blood flow; assay type: ADME, cell-based, Hepatocyte; conditions: read-out: Stability
[14] = Permeability from basolateral to apical side in human Caco2 cells; assay type: ADME, cell-based; conditions: caco-2
[15] = Protein binding in 10% fetal calf serum; assay type: ADME, cell-free, Bos taurus; conditions: cattle, read-out: PB (converted)
[16] = Efflux ratio of permeability from apical to basolateral side over basolateral to apical side in human Caco2 cells; assay type: ADME, cell-based; conditions: caco-2
[17] = Protein binding in mouse plasma; assay type: ADME, cell-free; conditions: read-out: PPB (converted)
[18] = molecular target: Alcohol dehydrogenase class-3 (Homo sapiens) (UniProt P11766); assay: Binding affinity to Alcohol dehydrogenase class-3 in human MDA-MB-468 cells at 10 uM incubated for 2 hrs in presence of 12-amino-2-[4-[(1S)-1-[(4,5-dichloro-1,6-dimethyl-indole-2-carbonyl)amino]-2-hydroxy-ethyl]phenyl]sulfonyl-dodecanoic acid by quantitative chemical proteomics assay; assay type: cell-based
[19] = molecular target: T2, 3-hydroxyisobutyrate dehydrogenase, mitochondrial (Homo sapiens); assay: Binding affinity to 3-hydroxyisobutyrate dehydrogenase in human MDA-MB-468 cells at 10 uM incubated for 2 hrs in presence of 12-amino-2-[4-[(1S)-1-[(4,5-dichloro-1,6-dimethyl-indole-2-carbonyl)amino]-2-hydroxy-ethyl]phenyl]sulfonyl-dodecanoic acid by quantitative chemical proteomics assay; assay type: cell-based
[20] = molecular target: T1, D-3-phosphoglycerate dehydrogenase; assay: Binding affinity to human PHGDH ( 1 to 533 residues) expressed in Escherichia coli Rosetta (DE3) by Sypro-orange dye based differential scanning fluorimetry
[21] = molecular target: T1, D-3-phosphoglycerate dehydrogenase; assay: Inhibition of His6-tagged PHGDH (unknown origin) expressed in Escherichia coli BL21 assessed as effect on NADH fluorescence incubated for 60 mins using 3-PG as substrate in presence of 500 uM NAD+ and PSAT1 by diaphorase and resazurin dye based fluorescence assay
[22] = Drug uptake in human MDA-MB-468 cells assessed as BI-4924 levels at 3 uM measured up to 72 hrs relative to control; assay type: ADME, cell-based; conditions: mda-mb-468, 72 h
[23] = Drug uptake in human MDA-MB-468 cells assessed as BI-4924 levels at 3 uM measured up to 72 hrs; assay type: ADME, cell-based; conditions: mda-mb-468, 72 h, TDE = time-dependent effect
[24] = Half life in 10% fetal calf serum; assay type: ADME, cell-free, Bos taurus; conditions: cattle
[25] = Half life in mouse serum; assay type: ADME, cell-free
[26] = molecular target: T1, D-3-phosphoglycerate dehydrogenase; assay: Inhibition of PHGDH in human MDA-MB-468 cells assessed as reduction in [13C]-serine incubated for 1 hr using [13C]glucose as substrate by LC-MS/MS analysis; assay type: cell-based

Alcohol dehydrogenase class-3 (Homo sapiens), sequence (P11766 2-374 limits assumed): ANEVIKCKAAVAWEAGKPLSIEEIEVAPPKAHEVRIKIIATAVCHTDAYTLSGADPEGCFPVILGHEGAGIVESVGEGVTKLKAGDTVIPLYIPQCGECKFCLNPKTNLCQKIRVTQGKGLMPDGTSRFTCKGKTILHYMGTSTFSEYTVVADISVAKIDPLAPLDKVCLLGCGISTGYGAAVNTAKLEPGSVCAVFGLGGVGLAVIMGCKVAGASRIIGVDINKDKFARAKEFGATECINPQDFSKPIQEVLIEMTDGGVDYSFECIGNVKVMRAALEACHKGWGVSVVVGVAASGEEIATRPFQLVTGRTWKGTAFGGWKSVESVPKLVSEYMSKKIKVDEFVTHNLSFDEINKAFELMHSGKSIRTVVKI

SMILES | IC50 [1] [µM] | IC50 [2] [µM] | also measured
C[C@@H](NC(=O)c1cc2c(Cl)cc(C(F)F)cc2n1C)c1ccc(C(=O)O)cc1 | 0.081 | 0.714 | 
Cc1cc2c(cc1Cl)cc(C(=O)N[C@H](C)c1ccc(C(=O)O)cc1)n2C | 0.051 | 0.412 | 
Cn1c(C(=O)Nc2cccc(C(=O)O)c2)cc2ccccc21 |  |  | Kd [3]: 144 µM
Cc1cc(Cl)c2cc(C(=O)N[C@H](C)c3ccc(C(=O)O)cc3)n(C)c2c1 | 0.028 | 0.246 | 
Cc1cc2c(cc(C(=O)N[C@H](C)c3ccc(C(=O)O)cc3)n2C)c(Cl)c1Cl | 0.014 | 0.095 | 
Cc1cc2c(cc(C(=O)N[C@H](CO)c3ccc(S(=O)(=O)CC(=O)O)cc3)n2C)c(Cl)c1Cl |  |  | Activity [4]: Active; Activity [5]: Active; permeability [6]: 0.2 ×10⁻⁶ cm/s; IC50 [7]: 2.2 µM; solubility [8]: 64 mg/mL (≈ 128 mM); solubility [9]: 59 mg/mL (≈ 118 mM); hepatic extraction ratio [10]: < 0.23; hepatic extraction ratio [11]: < 0.24; hepatic extraction ratio [12]: < 0.24; hepatic extraction ratio [13]: 0.38; permeability [14]: 0.2 ×10⁻⁶ cm/s; fraction unbound [15]: 0.17; Ratio [16]: 11; fraction unbound [17]: 0.004; Activity [18]: Active; Activity [19]: Active
C[C@@H](NC(=O)c1cc2cc(Cl)ccc2n1C)c1ccc(C(=O)O)cc1 | 0.254 | 2.37 | 
NC(=O)c1ccc(F)c(Cl)c1 |  |  | Kd [20]: 1500 µM
C[C@@H](NC(=O)c1cc2cc(Cl)cc(OC(F)(F)F)c2n1C)c1ccc(C(=O)O)cc1 | 0.824 | 6.69 | 
COc1cc(Cl)cc2cc(C(=O)N[C@H](C)c3ccc(C(=O)O)cc3)n(C)c12 | 0.072 | 0.746 | 
C[C@@H](NC(=O)c1cc2c3ccccc3ccc2n1C)c1ccc(C(=O)O)cc1 | 0.058 | 0.345 | 
C[C@@H](NC(=O)c1cc2cc(Cl)c(Br)cc2n1C)c1ccc(C(=O)O)cc1 | 0.061 | 0.341 | 
COc1cc(F)c(Cl)c2cc(C(=O)N[C@H](C)c3ccc(C(=O)O)cc3)n(C)c12 | 0.123 | 1.29 | 
Cc1cc2c(cc(C(=O)N[C@H](C)c3ccc(C(=O)O)cc3)n2C)c2ccccc12 | 0.028 | 0.249 | 
C[C@@H](NC(=O)c1cc(-c2ccccc2)nn1C)c1ccc(C(=O)NS(C)(=O)=O)cc1 | 0.3 |  | 
CC(=O)NS(=O)(=O)N1CCC(NC(=O)c2cc3c(Cl)c(Cl)ccc3n2C)C(CC(=O)O)C1 (stereo not given) |  |  | IC50 [21]: 0.01 to 1.5 µM
C[C@@H](O)[C@@H](NC(=O)c1cc2cc(Cl)ccc2n1C)c1ccccc1 | 12.1 |  | 
CC(=O)NS(=O)(=O)c1ccc(C(C)NC(=O)c2cc(-c3ccccc3)nn2C)cc1 (racemic) | 0.07 |  | 
Cn1nc(-c2ccccc2)cc1C(=O)NCc1ccc(C(=O)O)cc1 | 5.7 |  | 
Cc1cc2c(cc(C(=O)N[C@H](C)c3ccc(S(=O)(=O)CC(=O)O)cc3)n2C)c(Cl)c1Cl | 0.002 |  | 
C[C@@H](NC(=O)c1cc2c(Cl)c(Cl)ccc2n1C)c1ccc(C(=O)O)cc1 | 0.03 | 0.228 | 
C[C@@H](NC(=O)c1cc(-c2ccccc2)nn1C)c1ccc(N2C[C@@H](O)[C@@H](O)C2)cc1 | 5.2 |  | 
CCc1cc(Cl)c2cc(C(=O)N[C@H](C)c3ccc(C(=O)O)cc3)n(C)c2c1 | 0.03 | 0.301 | 
Cn1nc(-c2ccccc2)cc1C(=O)NC1CC1 |  |  | Kd [3]: 105 µM
CCOC(=O)CS(=O)(=O)c1ccc([C@@H](CO)NC(=O)c2cc3c(Cl)c(Cl)c(C)cc3n2C)cc1 |  |  | fold change (FC) [22]: <= 140; Drug uptake [23]: Tde; half-life [24]: 4.6 h; half-life [25]: 2.25 h; IC50 [26]: 0.029 µM; IC50 [7]: 2 µM
C[C@@H](NC(=O)c1cc(-c2ccccc2)nn1C)c1ccc(N(C)C(=N)N)cc1 | > 100 |  | 
Cn1c(C(=O)N[C@@H](c2ccccc2)[C@H](O)C(F)(F)F)cc2cc(Cl)ccc21 (relative stereo) | > 100 |  | 
